One data set deals with Septoria tritici. The experiment in a line: Septoria tritici (leaf blotch), liquid culture growth inhibition in nutrient broth. It counts as cell-based. Particulars: Zymoseptoria tritici, read-out: control of fungal infection, Septoria tritici.
The subject of another data set is Pythium ultimum. The data set can be described thus: Pythium ultimum (Damping off), liquid culture growth inhibition in potato dextrose broth. Particulars: Globisporangium ultimum, read-out: control of fungal infection, Pythium ultimum. The data set is classed as cell-based.
Data set [1] has as its system Erysiphe graminis f.sp. tritici. The experiment in a line: Erysiphe graminis f.sp. tritici (wheat powdery mildew), wheat leaf segment assay, preventive. The data set is classed as in vivo. Particulars: Blumeria graminis, foliar, 96 h, read-out: control of fungal infection, Etysiphe graminis f.sp. tritici.
In another data set the test system is Fusarium culmorum. The experiment in a line: Fusarium culmorum (root rot), liquid culture growth inhibition in nutrient broth. It counts as cell-based. Particulars: PDB broth, 24 C, inhibition of growth determined photometrically after 48 hrs, read-out: control of fungal infection, Fusarium culmorum. The essentials: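 Fusarium culmorum conidia from cryogenic storage were mixed into potato dextrose broth and added to compound pre-dispensed from DMSO (diluted in 0.025% Tween20). Incubated at 24 C in the dark; growth inhibition read photometrically after 48 hrs.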

A further data set deals with Phytophthora infestans. The data set can be described thus: whole plant or invertebrate. It counts as in vivo. Particulars: in Solanum lycopersicum, foliar, 96 h, read-out: control of fungal infection, Phytophthora infestans.
In the next data set the test system is Plasmopara viticola. The data set can be described thus: Plasmopara viticola (downy mildew of grapevine), grapevine leaf disk assay, preventive. It counts as in vivo. Particulars: foliar, 168 h, read-out: control of fungal infection, Plasmopara viticola.
The subject of data set [2] is Puccinia recondita f.sp. tritici. The experiment in a line: Puccinia recondita f.sp. tritici (wheat brown rust), wheat leaf segment assay, preventive. The data set is classed as in vivo. The conditions noted are these: foliar, 216 h, read-out: control of fungal infection, Puccinia recondite f.sp. tritici.
A further data set has as its system Septoria nodorum. The data set can be described thus: Septoria nodorum (wheat glume blotch), wheat leaf segment assay, preventive. The data set is classed as in vivo. Particulars: Parastagonospora nodorum, foliar, 96 h, read-out: control of fungal infection, Septoria nodorum.
For the next data set, the system named is Botrytis cinerea. The data set can be described thus: Botrytis cinerea (grey mould), bean leaf disk assay, preventive. The data set is classed as in vivo. The conditions noted are these: foliar, 96 h, read-out: control of fungal infection, Botrytis cinerea.
Setting [3] is: 200 ppm, PDB broth, 24 C, inhibition of growth determined photometrically after 72 hrs.
[4] abbreviates: 20 ppm, potato dextrose broth, 24° C., inhibition of growth determined photometrically after 48 hours.
Where [5] appears, read: 200 ppm, wheat leaf segments, assessed four days after inoculation.
[6] abbreviates: 200 ppm, grapevine leaf disks, assessed seven days after inoculation.
The mark [7] stands for this setting: 200 ppm, wheat leaf segments, assessed nine days after inoculation.
[8] abbreviates: 200 ppm, bean leaf disks, assessed four days after inoculation.

Read-outs that look alike come from different tables or passages of the source.

As a reminder, the melting point is the temperature of the solid-liquid transition. `CON=CC(C)(C#N)NC(=O)C(Oc1cc(C)c2ncc(Br)cc2c1)SC` (stereo not shown) [Compound No. 54, 2-(3-Bromo-8-methyl-quinolin-6-yloxy)-N-(1-cyano-2-methoxyimino-1-methyl-ethyl)-2-methylsulfanyl-acetamide] came in with a melting point of 156 to 159 °C. The inhibition of growth at 200 ppm with Septoria tritici (setting [3]) is ≥ 60%. Also, the inhibition of growth at 20 ppm in the data set on Pythium ultimum (setting [4]) was ≥ 60%. In addition, the pest or weed control at 200 ppm in data set [1] (setting [5]) was ≥ 60%. For the same molecule, in the data set with Fusarium culmorum, the inhibition of growth at 200 ppm was ≥ 60%. In addition, in the data set on Phytophthora infestans, the pest or weed control at 200 ppm is ≥ 60%. Besides, the pest or weed control at 200 ppm in the data set with Plasmopara viticola (setting [6]) is ≥ 60%.

For `C#Cc1cnc2c(C)cc(OC(SC)C(=O)NC(C)(C#N)C=NOC)cc2c1` (stereo not shown) [Compound No. 56, N-(1-Cyano-2-methoxyimino-1-methyl-ethyl)-2-(3-ethynyl-8-methyl-quinolin-6-yloxy)-2-methylsulfanyl-acetamide], the melting point was in the range of 172 to 174 °C. The inhibition of growth at 200 ppm in the data set with Septoria tritici (setting [3]) was ≥ 60%. Besides, the pest or weed control at 200 ppm in data set [2] (setting [7]) was ≥ 60%. Besides, in the data set with Septoria nodorum (setting [5]), the pest or weed control at 200 ppm is ≥ 60%. Besides, the inhibition of growth at 20 ppm with Pythium ultimum (setting [4]) is ≥ 60%. Further, in the data set on Botrytis cinerea (setting [8]), the pest or weed control at 200 ppm was ≥ 60%. In addition, the pest or weed control at 200 ppm in data set [1] (setting [5]) was ≥ 60%. Also, the pest or weed control at 200 ppm in the data set on Phytophthora infestans was ≥ 60%. For the same molecule, the pest or weed control at 200 ppm in the data set with Plasmopara viticola (setting [6]) was ≥ 60%.

In turn, `CON=CC(C)(C#N)NC(=O)C(Oc1ccc2ncc(I)cc2c1)SC` (stereo not shown) [Compound No. 57, N-(1-Cyano-2-methoxyimino-1-methyl-ethyl)-2-(3-iodo-quinolin-6-yloxy)-2-methylsulfanyl-acetamide] came in with a melting point of 59 to 64 °C. For the same molecule, the inhibition of growth at 200 ppm in the data set with Septoria tritici (setting [3]) was ≥ 60%. Moreover, the pest or weed control at 200 ppm in data set [2] (setting [7]) is ≥ 60%. Also, in the data set with Septoria nodorum (setting [5]), the pest or weed control at 200 ppm is ≥ 60%. Further, the inhibition of growth at 20 ppm in the data set with Pythium ultimum (setting [4]) was ≥ 60%. In data set [1] (setting [5]), the pest or weed control at 200 ppm is ≥ 60%. Besides, the inhibition of growth at 200 ppm in the data set with Fusarium culmorum is ≥ 60%. Further, the pest or weed control at 200 ppm in the data set with Phytophthora infestans is ≥ 60%. Besides, the pest or weed control at 200 ppm in the data set on Plasmopara viticola (setting [6]) is ≥ 60%.

The molecule `CON=CC(C)(C#N)NC(=O)C(Oc1ccc2ncc(C#C[Si](C)(C)C)cc2c1)SC` (stereo not shown) [Compound No. 58, N-(1-Cyano-2-methoxyimino-1-methyl-ethyl)-2-methylsulfanyl-2-(3-trimethylsilanylethynyl-quinolin-6-yloxy)-acetamide] gave a melting point of 69 to 75 °C. Besides, the inhibition of growth at 200 ppm in the data set with Septoria tritici (setting [3]) was ≥ 60%. Also, in the data set with Septoria nodorum (setting [5]), the pest or weed control at 200 ppm was ≥ 60%. In addition, the inhibition of growth at 20 ppm in the data set with Pythium ultimum (setting [4]) is ≥ 60%. The pest or weed control at 200 ppm in the data set on Botrytis cinerea (setting [8]) is ≥ 60%. Further, the pest or weed control at 200 ppm in data set [1] (setting [5]) is ≥ 60%. In addition, the pest or weed control at 200 ppm in the data set on Phytophthora infestans is ≥ 60%. In the data set on Plasmopara viticola (setting [6]), the pest or weed control at 200 ppm is ≥ 60%.

Consider `CCC(Oc1ccc2ncc(Br)cc2c1)C(=O)NC(C)(C#N)C=NOC` (stereo not shown) [Compound No. 60, 2-(3-Bromo-quinolin-6-yloxy)-N-(1-cyano-2-methoxyimino-1-methyl-ethyl)-butyramide], for which the melting point lay in the range of 152 to 155 °C. In the data set with Septoria tritici (setting [3]), the inhibition of growth at 200 ppm was ≥ 60%. For the same molecule, the inhibition of growth at 20 ppm with Pythium ultimum (setting [4]) is ≥ 60%. Further, the pest or weed control at 200 ppm with Botrytis cinerea (setting [8]) was ≥ 60%. The pest or weed control at 200 ppm in the data set with Phytophthora infestans was ≥ 60%.

For `C#Cc1cnc2ccc(OC(SC)C(=O)NC(C)(C#C)C=NOC)cc2c1` (stereo not shown) [Compound No. 69, 2-(3-Ethynyl-quinolin-6-yloxy)-N-[1-(methoxyimino-methyl)-1-methyl-prop-2-ynyl]-2-methylsulfanyl-acetamide], the inhibition of growth at 200 ppm with Septoria tritici (setting [3]) and in the data set with Fusarium culmorum was ≥ 60% each time. Further, the pest or weed control at 200 ppm (in data set [2] (setting [7]); with Septoria nodorum (setting [5]); in the data set on Botrytis cinerea (setting [8]); in [1] (setting [5]); in the data set on Phytophthora infestans; with Plasmopara viticola (setting [6])) was ≥ 60% throughout. Besides, in the data set with Pythium ultimum (setting [4]), the inhibition of growth at 20 ppm is ≥ 60%.

As to `CON=CC(C)(C)NC(=O)C(OC)Oc1cc(C)c2ncc(Br)cc2c1` (stereo not shown) [Compound No. 71, 2-(3-Bromo-8-methyl-quinolin-6-yloxy)-2-methoxy-N-(2-methoxyimino-1,1-dimethyl-ethyl)-acetamide], the melting point fell in the range of 130 to 132 °C. Further, the inhibition of growth at 200 ppm in the data set on Septoria tritici (setting [3]) is ≥ 60%. In the data set with Botrytis cinerea (setting [8]), the pest or weed control at 200 ppm is ≥ 60%. The pest or weed control at 200 ppm in [1] (setting [5]) was ≥ 60%. Further, in the data set with Fusarium culmorum, the inhibition of growth at 200 ppm was ≥ 60%. In the data set on Plasmopara viticola (setting [6]), the pest or weed control at 200 ppm is ≥ 60%.

Consider `C#Cc1cnc2ccc(OC(OC)C(=O)NC(C)(C)C=NOC)cc2c1` (stereo not shown) [Compound No. 76, 2-(3-Ethynyl-quinolin-6-yloxy)-2-methoxy-N-(2-methoxyimino-1,1-dimethyl-ethyl)-acetamide], for which the inhibition of growth at 200 ppm with Septoria tritici (72 h) and with Fusarium culmorum was ≥ 60% in each case. Also, the pest or weed control at 200 ppm (in [2]; in the data set with Septoria nodorum; with Botrytis cinerea; in [1]; in the data set with Phytophthora infestans; in the data set on Plasmopara viticola) was ≥ 60% each time. The inhibition of growth at 20 ppm with Pythium ultimum (48 h) was ≥ 60%.

The molecule `C#Cc1cnc2c(C)cc(OC(OC)C(=O)NC(C)(C)C=NOC)cc2c1` (stereo not shown) [Compound No. 77, 2-(3-Ethynyl-8-methyl-quinolin-6-yloxy)-2-methoxy-N-(2-methoxyimino-1,1-dimethyl-ethyl)-acetamide] displayed a melting point of 138 to 140 °C. In addition, in the data set with Septoria tritici (setting [3]), the inhibition of growth at 200 ppm is ≥ 60%. Further, the pest or weed control at 200 ppm in [2] (setting [7]) is ≥ 60%. In addition, in the data set on Septoria nodorum (setting [5]), the pest or weed control at 200 ppm was ≥ 60%. In the data set on Pythium ultimum (setting [4]), the inhibition of growth at 20 ppm was ≥ 60%. For the same molecule, in [1] (setting [5]), the pest or weed control at 200 ppm was ≥ 60%. Also, the inhibition of growth at 200 ppm with Fusarium culmorum was ≥ 60%. The pest or weed control at 200 ppm in the data set with Phytophthora infestans was ≥ 60%. Moreover, the pest or weed control at 200 ppm in the data set with Plasmopara viticola (setting [6]) was ≥ 60%.

For `CON=CC(C)(C)NC(=O)C(Oc1cc(Cl)c2ccsc2c1)SC` (stereo not shown) [Compound No. 81, 2-(4-Chloro-benzo[b]thiophen-6-yloxy)-N-(2-methoxyimino-1,1-dimethyl-ethyl)-2-methylsulfanyl-acetamide], the melting point is 120 to 122 °C. The inhibition of growth at 200 ppm in the data set on Septoria tritici (setting [3]) was ≥ 60%. The pest or weed control at 200 ppm in the data set with Botrytis cinerea (setting [8]) is ≥ 60%. In the data set with Plasmopara viticola (setting [6]), the pest or weed control at 200 ppm was ≥ 60%.

As for `CON=CC(C)(C)NC(=O)C(Oc1ccc2ocnc2c1)SC` (stereo not shown) [Compound No. 88, 2-(benzooxazol-5-yloxy)-N-(2-methoxyimino-1,1-dimethyl-ethyl)-2-methylsulfanyl-acetamide], the melting point lay in the range of 95 to 96 °C. Moreover, the inhibition of growth at 20 ppm in the data set on Pythium ultimum (setting [4]) is ≥ 60%.

As for `CON=CC(C)(C)NC(=O)C(Oc1cc(Cl)c2ncc(Cl)cc2c1)SC` (stereo not shown) [Compound No. 90, 2-(3,8-Dichloro-quinolin-6-yloxy)-N-(2-methoxyimino-1,1-dimethyl-ethyl)-2-methylsulfanyl-acetamide], the melting point lay in the range of 158 to 161 °C. For the same molecule, the inhibition of growth at 200 ppm with Septoria tritici (setting [3]) is ≥ 60%. Besides, in the data set with Pythium ultimum (setting [4]), the inhibition of growth at 20 ppm was ≥ 60%. In addition, the pest or weed control at 200 ppm in the data set on Botrytis cinerea (setting [8]) is ≥ 60%. Moreover, the pest or weed control at 200 ppm in data set [1] (setting [5]) was ≥ 60%. For the same molecule, the pest or weed control at 200 ppm in the data set on Plasmopara viticola (setting [6]) was ≥ 60%.

`CON=CC(C)(C)NC(=O)C(Oc1cc(C)c2ncncc2c1)SC` (stereo not shown) [Compound No. 91, N-(2-Methoxyimino-1,1-dimethyl-ethyl)-2-(8-methyl-quinazolin-6-yloxy)-2-methylsulfanyl-acetamide] came in with a melting point of 109 to 112 °C. Moreover, the inhibition of growth at 20 ppm with Pythium ultimum (setting [4]) is ≥ 60%. The pest or weed control at 200 ppm in the data set on Botrytis cinerea (setting [8]) was ≥ 60%. Moreover, in the data set with Phytophthora infestans, the pest or weed control at 200 ppm is ≥ 60%. In the data set on Plasmopara viticola (setting [6]), the pest or weed control at 200 ppm was ≥ 60%.

As to `C#Cc1cnc2ccc(OC(SC)C(=O)NC(C)(C)CC=NOC)cc2c1` (stereo not shown) [Compound No. 95, 2-(3-Ethynyl-quinolin-6-yloxy)-N-(3-methoxyimino-1,1-dimethyl-propyl)-2-methylsulfanyl-acetamide], the inhibition of growth at 200 ppm in the data set with Septoria tritici (setting [3]) and in the data set on Fusarium culmorum was ≥ 60% throughout. Moreover, the pest or weed control at 200 ppm (in data set [2] (setting [7]); with Septoria nodorum (setting [5]); in the data set on Botrytis cinerea (setting [8]); in data set [1] (setting [5]); with Phytophthora infestans; in the data set with Plasmopara viticola (setting [6])) was ≥ 60% throughout. Moreover, in the data set on Pythium ultimum (setting [4]), the inhibition of growth at 20 ppm was ≥ 60%.

The record behind these values is patent US8507509B2, “Saturated and insaturated bi- or tricyclic aryloxyacetamine derivatives and their use as fungicides” (Syngenta Crop Protection LLC, priority 2007, dated 2013).
